# According to patent US20170065564A1, “BIS-CYCLIC GUANIDINE COMPOUND COMPOSITIONS, METHODS OF USE AND TREATMENT THEREOF” (University of South Florida, priority 2014, published 2017):
# pIC50: −log10 of the molar value.
# How the values were obtained:
# Staphylococcus aureus = experiment: MIC micro broth dilution assay; type: cell-based; settings: for stacked score activity, 100/MIC, S: S. aureus; for MIC: Staphylococcus aureus
# In short: (§1)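 Multidrug-resistant clinical ESKAPE isolates were grown overnight (Gram-positives in TSB, Gram-negatives in LB), diluted 1:1,000 and exposed to decreasing compound concentrations in DMF (≤2.0% DMF).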
# human A549 cells = experiment: Cytotoxicity assay (MTT); type: cell-based; settings: for pIC50: Homo sapiens, A549, MTT, 48 hours
# Experimental: Cytotoxicity assays were performed using human A549 cells (adenocarcinomic human alveolar epithelial cells), as described by us previously.^44 Briefly, cells were cultured in F-12K Nutrient mixture (Kaighn's Modification) media containing L-glutamine, supplemented with 10% fetal bovine serum and 1% penicillin-streptomycin for 3 days at 37° and 5% CO2. Cells were then diluted to 1.0×10^5 ml^−1 using F-12K supplemented media, and added to 96 well tissue culture plates at a volume of 100 μl. Plates were incubated for 24 hours at 37° C. and 5% CO2, allowing the cells to adhere to the plastic. […] Plates were then incubated for 48 hours at 37° C. and 5% CO2. After 48 hours the media was removed, and new media added containing MTT (3-(4, 5-dimethylthiazol-2-yl)-2, 5-diphenyltetrazolium bromide), followed by incubation for four hours at 37° C. and 5% CO2. After 4 h, 50 μl of media was removed, replaced with DMSO and incubated for ten minutes at 37° C. in order to solubilize any formazan produced. A Biotek plate reader was used to measure the absorbance of formazan production at […], and IC50 values were determined for each of the five compounds. Front runners were solvated in 45% w/v (2-hydroxypropyl)-β-cyclodextrin in water for these studies; which was also used alone as a negative control. IC50 values were determined for each compound by comparison to vehicle only controls, to assess toxicity to human cells.
# Klebsiella pneumoniae = experiment: MIC micro broth dilution assay; type: cell-based; settings: for stacked score activity, 100/MIC, K: K. pneumoniae; for MIC: Klebsiella pneumoniae
# In short: as §1
# ESKAPE pathogens = experiment: MIC micro broth dilution assay, statements and stacked scores over all ESKAPE pathogens; type: cell-based; settings: letters E,S,K,A,P,E = ESKAPE pathogens, — = none
# Experimental: (§2) For this study we used a representative panel of multi-drug resistant clinical ESKAPE pathogen isolates (Supplemental Table S6).^42 43 3a, 44 45 Gram-positive organisms were grown in tryptic soy broth media (TSB), whilst Gram-negative organisms were grown in lysogeny Broth (LB), as described by us previously. ^43 MIC and MBC determination assays.
# (§3) The minimum inhibitory concentration (MIC) for the combinatorial libraries, deconvolved 2157 library, and individual compounds were determined as follows. Broth cultures of ESKAPE strains were grown overnight before being diluted 1 in 1,000 in fresh media. Sterile 96-well plates were loaded with culture and compounds (in DMF) were added at decreasing concentrations to equal a total volume of 200 μl per well. Care was taken to not add more than 2.0% DMF to any well. Plates were then incubated at 37° C., and MICs determined after 24 hours by visual inspection for a lack of turbidity in wells. All assays were performed in triplicate with identical results obtained. For both the scaffold ranking and positional scanning samples, relative broad-spectrum activity was determined via stacked scores: […]
# S. aureus = experiment: Resistance serial passage assay; type: cell-based, Staphylococcus aureus; settings: 8 passages, concentration doubled each day
# Experimental: ESKAPE pathogens were grown overnight in liquid media at 37° C. These cultures were then diluted 1:100 in fresh media, and seeded into a 96-well plate. Lead bis-cyclic guanidines or control agents were added to respective wells at half MIC concentrations. Plates were then incubated for 24 hours at 37° C., with bacteria removed from these cultures on the following day, to inoculate fresh media (1:100 dilution) containing compounds at a 2-fold higher concentrations. These were then grown overnight, and the procedure repeated for a total of eight days. […] Each experiment was performed in triplicate, yielding identical results.
# Pseudomonas aeruginosa = experiment: MIC micro broth dilution assay; type: cell-based; settings: for MIC: Pseudomonas aeruginosa; for concentration inhibiting 90% of isolates: panel of P. aeruginosa clinical isolates
# Experimental: as §2
# as §3, with “Broth” for “The minimum inhibitory concentration (MIC) for the combinatorial libraries, deconvolved 2157 library, and individual compounds were determined as follows. Broth”
# Acinetobacter baumannii = experiment: MIC micro broth dilution assay; type: cell-based; settings: for stacked score activity, 100/MIC, A: A. baumannii; for MIC: Acinetobacter baumannii
# In short: as §1
# [1] = panel of K. pneumoniae clinical isolates
structure (smiles),measurement,setting,value
"CCCC[C@H]1CN(CCCC[C@H]2CNC(=N)N2CCc2cccc(C(F)(F)F)c2)C(=N)N1CCCCC1CCCCC1 [Compound 2, (S)-4-butyl-3-(4-cyclohexylbutyl)-1-(4-((S)-2-imino-3-(3-(trifluoromethyl)phenethyl)imidazolidin-4-yl)butyl)imidazolidin-2-imine]","stacked score activity, 100/MIC, S",Staphylococcus aureus,33
same,MIC,Staphylococcus aureus; S. aureus isolate 542,2 µM
same,MIC,Staphylococcus aureus; S. aureus isolate 626,2 µM
same,MIC,Staphylococcus aureus; S. aureus isolate 635,2 µM
same,MIC,Staphylococcus aureus; S. aureus isolate 648,2 µM
same,MIC,Staphylococcus aureus; S. aureus isolate 690,2 µM
same,MIC,Staphylococcus aureus; S. aureus isolate 693,2 µM
same,MIC,Staphylococcus aureus; S. aureus isolate 715,2 µM
same,MIC,Staphylococcus aureus; S. aureus isolate 728,2 µM
same,MIC,Staphylococcus aureus; S. aureus isolate 834,2 µM
same,MIC,Staphylococcus aureus; S. aureus isolate 1043,2 µM
same,MIC,Staphylococcus aureus; S. aureus isolate 1049,2 µM
same,MIC,"Staphylococcus aureus; purified compound, Table 1",1.52 µM
same,pIC50,human A549 cells,3.90
same,"stacked score activity, 100/MIC, K",Klebsiella pneumoniae,20
same,MIC,Klebsiella pneumoniae; K. pneumoniae isolate 1408,2 µM
same,MIC,Klebsiella pneumoniae; K. pneumoniae isolate 1409,3 µM
same,MIC,Klebsiella pneumoniae; K. pneumoniae isolate 1410,2 µM
same,MIC,Klebsiella pneumoniae; K. pneumoniae isolate 1411,2 µM
same,MIC,Klebsiella pneumoniae; K. pneumoniae isolate 1412,2 µM
same,MIC,Klebsiella pneumoniae; K. pneumoniae isolate 1413,2 µM
same,MIC,Klebsiella pneumoniae; K. pneumoniae isolate 1433,2 µM
same,MIC,Klebsiella pneumoniae; K. pneumoniae isolate 1434,3 µM
same,MIC,Klebsiella pneumoniae; K. pneumoniae isolate 1440,5 µM
same,MIC,Klebsiella pneumoniae; K. pneumoniae isolate 1441,2 µM
same,MIC,"Klebsiella pneumoniae; purified compound, Table 1",1.52 µM
same,concentration inhibiting 70% of strains,Klebsiella pneumoniae; [1],2 µM
same,concentration inhibiting 90% of isolates,Klebsiella pneumoniae; [1],5 µM
same,pathogens against which the compound showed activity at 4 ug/ml,ESKAPE pathogens,ESAP
same,pathogens against which the compound showed activity at 5 ug/ml,ESKAPE pathogens,ESKAPE
same,pathogens against which the compound showed activity at 10 ug/ml,ESKAPE pathogens,ESKAPE
same,pathogens against which the compound showed activity at 25 ug/ml,ESKAPE pathogens,ESKAPE
same,increase in MIC after serial passage,S. aureus,two-fold
same,MIC,Pseudomonas aeruginosa; P. aeruginosa isolate 1414,3 µM
same,MIC,Pseudomonas aeruginosa; P. aeruginosa isolate 1415,3 µM
same,MIC,Pseudomonas aeruginosa; P. aeruginosa isolate 1416,2 µM
same,MIC,Pseudomonas aeruginosa; P. aeruginosa isolate 1417,3 µM
same,MIC,Pseudomonas aeruginosa; P. aeruginosa isolate 1418,7 µM
same,MIC,Pseudomonas aeruginosa; P. aeruginosa isolate 1419,3 µM
same,MIC,Pseudomonas aeruginosa; P. aeruginosa isolate 1420,3 µM
same,MIC,Pseudomonas aeruginosa; P. aeruginosa isolate 1421,3 µM
same,MIC,Pseudomonas aeruginosa; P. aeruginosa isolate 1422,3 µM
same,MIC,Pseudomonas aeruginosa; P. aeruginosa isolate 1423,2 µM
same,MIC,"Pseudomonas aeruginosa; purified compound, Table 1",1.52 µM
same,concentration inhibiting 90% of isolates,Pseudomonas aeruginosa,5 µM
same,"stacked score activity, 100/MIC, A",Acinetobacter baumannii,25
same,MIC,Acinetobacter baumannii; A. baumannii isolate 1403,2 µM
same,MIC,Acinetobacter baumannii; A. baumannii isolate 1643,2 µM
same,MIC,Acinetobacter baumannii; A. baumannii isolate 1644,2 µM
same,MIC,Acinetobacter baumannii; A. baumannii isolate 1647,2 µM
same,MIC,Acinetobacter baumannii; A. baumannii isolate 1648,2 µM
same,MIC,Acinetobacter baumannii; A. baumannii isolate 1649,2 µM
same,MIC,Acinetobacter baumannii; A. baumannii isolate 1650,2 µM
same,MIC,Acinetobacter baumannii; A. baumannii isolate 1651,2 µM
same,MIC,Acinetobacter baumannii; A. baumannii isolate 1653,2 µM
same,MIC,Acinetobacter baumannii; A. baumannii isolate 1654,2 µM
same,MIC,"Acinetobacter baumannii; purified compound, Table 1",1.52 µM
CCCCCCCN1C(=N)N(CCCC[C@H]2CNC(=N)N2CCc2cccc(C(F)(F)F)c2)C[C@@H]1CC1CCCCC1 [Compound 7],"stacked score activity, 100/MIC, S",Staphylococcus aureus,33
same,MIC,Staphylococcus aureus; S. aureus isolate 542,2 µM
same,MIC,Staphylococcus aureus; S. aureus isolate 626,2 µM
same,MIC,Staphylococcus aureus; S. aureus isolate 635,2 µM
same,MIC,Staphylococcus aureus; S. aureus isolate 648,2 µM
same,MIC,Staphylococcus aureus; S. aureus isolate 690,2 µM
same,MIC,Staphylococcus aureus; S. aureus isolate 693,2 µM
same,MIC,Staphylococcus aureus; S. aureus isolate 715,2 µM
same,MIC,Staphylococcus aureus; S. aureus isolate 728,2 µM
same,MIC,Staphylococcus aureus; S. aureus isolate 834,2 µM
same,MIC,Staphylococcus aureus; S. aureus isolate 1043,2 µM
same,MIC,Staphylococcus aureus; S. aureus isolate 1049,2 µM
same,MIC,"Staphylococcus aureus; purified compound, Table 1",1.52 µM
same,pIC50,human A549 cells,4.18
same,A549 cell recovery compared to vehicle only controls,"human A549 cells; above 45 μM, at concentrations up to 225 μM",≥ 33%
same,"stacked score activity, 100/MIC, K",Klebsiella pneumoniae,20
same,MIC,Klebsiella pneumoniae; K. pneumoniae isolate 1408,2 µM
same,MIC,Klebsiella pneumoniae; K. pneumoniae isolate 1409,3 µM
same,MIC,Klebsiella pneumoniae; K. pneumoniae isolate 1410,2 µM
same,MIC,Klebsiella pneumoniae; K. pneumoniae isolate 1411,2 µM
same,MIC,Klebsiella pneumoniae; K. pneumoniae isolate 1412,2 µM
same,MIC,Klebsiella pneumoniae; K. pneumoniae isolate 1413,2 µM
same,MIC,Klebsiella pneumoniae; K. pneumoniae isolate 1433,2 µM
same,MIC,Klebsiella pneumoniae; K. pneumoniae isolate 1434,5 µM
same,MIC,Klebsiella pneumoniae; K. pneumoniae isolate 1440,3 µM
same,MIC,Klebsiella pneumoniae; K. pneumoniae isolate 1441,2 µM
same,MIC,"Klebsiella pneumoniae; purified compound, Table 1",1.52 µM
same,concentration inhibiting 90% of isolates,Klebsiella pneumoniae; [1],5 µM
same,pathogens against which the compound showed activity at 4 ug/ml,ESKAPE pathogens,ESAP
same,pathogens against which the compound showed activity at 5 ug/ml,ESKAPE pathogens,ESKAPE
same,pathogens against which the compound showed activity at 10 ug/ml,ESKAPE pathogens,ESKAPE
same,pathogens against which the compound showed activity at 25 ug/ml,ESKAPE pathogens,ESKAPE
same,increase in MIC after serial passage,S. aureus,four-fold
same,MIC,Pseudomonas aeruginosa; P. aeruginosa isolate 1414,3 µM
same,MIC,Pseudomonas aeruginosa; P. aeruginosa isolate 1415,3 µM
same,MIC,Pseudomonas aeruginosa; P. aeruginosa isolate 1416,2 µM
same,MIC,Pseudomonas aeruginosa; P. aeruginosa isolate 1417,3 µM
same,MIC,Pseudomonas aeruginosa; P. aeruginosa isolate 1418,7 µM
same,MIC,Pseudomonas aeruginosa; P. aeruginosa isolate 1419,3 µM
same,MIC,Pseudomonas aeruginosa; P. aeruginosa isolate 1420,5 µM
same,MIC,Pseudomonas aeruginosa; P. aeruginosa isolate 1421,2 µM
same,MIC,Pseudomonas aeruginosa; P. aeruginosa isolate 1422,5 µM
same,MIC,Pseudomonas aeruginosa; P. aeruginosa isolate 1423,2 µM
same,MIC,"Pseudomonas aeruginosa; purified compound, Table 1",1.52 µM
same,concentration inhibiting 90% of isolates,Pseudomonas aeruginosa,10 µM
same,"stacked score activity, 100/MIC, A",Acinetobacter baumannii,25
same,MIC,Acinetobacter baumannii; A. baumannii isolate 1403,2 µM
same,MIC,Acinetobacter baumannii; A. baumannii isolate 1643,2 µM
same,MIC,Acinetobacter baumannii; A. baumannii isolate 1644,2 µM
same,MIC,Acinetobacter baumannii; A. baumannii isolate 1647,2 µM
same,MIC,Acinetobacter baumannii; A. baumannii isolate 1648,2 µM
same,MIC,Acinetobacter baumannii; A. baumannii isolate 1649,2 µM
same,MIC,Acinetobacter baumannii; A. baumannii isolate 1650,2 µM
same,MIC,Acinetobacter baumannii; A. baumannii isolate 1651,2 µM
same,MIC,Acinetobacter baumannii; A. baumannii isolate 1653,2 µM
same,MIC,Acinetobacter baumannii; A. baumannii isolate 1654,2 µM
same,MIC,"Acinetobacter baumannii; purified compound, Table 1",1.52 µM
